From patent US11369583B2, “Long-acting prodrugs of rasagiline, preparing methods and uses thereof” (GUANGZHOU HENOVCOM BIOSCIENCE CO. LTD, priority 2017, dated 2022)
In brackets after ≈: the same amount, converted by molar mass. Where two headings read alike, the source gives them in different places.

Legend:
[1] = Solubility of prodrug compounds of Rasagiline in phosphate buffer pH 7.4; assay type: physicochemical
Excerpt: A melting point and solubility (phosphate buffer with pH of 7.4) of synthesized prodrug compounds of Rasagiline were detected, and the results are shown in table 1: […]

[2] = Pharmacokinetics experiment: Rasagiline in blood plasma after intramuscular injection of prodrug suspensions into beagles; assay type: in vivo; details: beagle, intramuscular injectable suspension
Experimental: One common male beagle was used for each group, and they were forbidden to eat for 12 hours before administering drugs, and drank water freely meanwhile. Injectable suspensions of Example 13, Example 15, Example 14, Example 20, Example 8 were intramuscularly injected in a dosage of 0.47 mg/kg Rasagiline (1.72 mg/kg, 1.56 mg/kg, 1.64 mg/kg, 1.80 mg/kg, 1.16 mg/kg of prodrug respectively after conversion).
Treatment of blood plasma sample: The blood plasma sample was placed in an ice bath; 30 μL of methanol and 20 μL of interior label (2 μg/mL apigenin dissolved in 50% methanol) were added into 200 μL of the blood plasma sample and mixed through vortex, and then 4 mL of ethyl acetate was added and mixed through vortex. After being centrifuged at 9000 g for 2 minutes, an organic phase was separated and dried in vacuum, and then 150 μL of methanol was added for re-dissolution. 30 μL of a prepared sample was taken for analyzing.
Data analysis: The sample was detected by LC-MS/MS, and analyzed by a DAS 2.0 software to calculate pharmacokinetic parameters according to blood drug concentration, providing parameters such as AUC (0-t), AUC(0-∞), MRT(0-t), MRT(0-∞), Cmax, Tmax, and t1/2, etc.

[3] = target: Monoamine oxidase (MAO-B) (Homo sapiens, UniProt P27338); details: monoamine oxidase inhibitor; stronger than Selegiline; cited from earlier work
[4] = pH 7.4, aqueous buffer, phosphate buffer with pH of 7.4, read-out: SOLUBILITY

Chain of Monoamine oxidase (MAO-B) (P27338 whole entry, species assumed): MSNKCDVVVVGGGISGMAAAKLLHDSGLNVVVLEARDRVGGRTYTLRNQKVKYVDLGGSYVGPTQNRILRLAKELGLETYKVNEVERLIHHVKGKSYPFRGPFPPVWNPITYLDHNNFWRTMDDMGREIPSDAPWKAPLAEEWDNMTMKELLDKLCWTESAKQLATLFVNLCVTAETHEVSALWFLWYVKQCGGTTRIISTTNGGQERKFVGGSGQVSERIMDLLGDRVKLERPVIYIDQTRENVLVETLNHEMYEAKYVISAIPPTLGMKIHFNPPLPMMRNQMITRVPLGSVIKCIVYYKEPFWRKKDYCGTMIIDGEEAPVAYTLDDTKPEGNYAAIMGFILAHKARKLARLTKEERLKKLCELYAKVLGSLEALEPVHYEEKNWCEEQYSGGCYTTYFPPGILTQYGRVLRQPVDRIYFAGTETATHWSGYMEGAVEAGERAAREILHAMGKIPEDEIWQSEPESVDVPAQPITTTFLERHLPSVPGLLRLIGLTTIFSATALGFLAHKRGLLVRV

Compound | solubility [1, 4] [µg/mL] | melting point [°C] | further results
C#CCN(C(=O)OCOC(=O)CCCCCCCCCCCCCCC)[C@@H]1CCc2ccccc21 [Example 1, methyl ((Rasagiline-N-formyl)oxy)-palmitate] | < 5 | < 25 | 
C#CCN(C(=O)OCOC(=O)Cc1cccc2ccccc12)[C@@H]1CCc2ccccc21 [Example 2, methyl ((Rasagiline-N-formyl)oxy)-naphthalene acetate] | < 5 | 66 to 70 | 
C#CCN(C(=O)OCOC(=O)CCCCCCCCCCCCCCCCC)[C@@H]1CCc2ccccc21 [Example 3, methyl ((Rasagiline-N-formyl)oxy)-stearate] | < 5 | < 25 | 
C#CCN(C(=O)OCOC(=O)C(C)(C)C)[C@@H]1CCc2ccccc21 [Example 4, methyl ((Rasagiline-N-formyl)oxy)-pivalate] | < 5 | < 25 | 
C#CCN(C(=O)OCOC(=O)CCCCCCCCCCCCCCCCCCC)[C@@H]1CCc2ccccc21 [Example 5, methyl ((Rasagiline-N-formyl)oxy)-icosanoate] | < 5 | < 25 | 
C#CCN(C(=O)OCOC(=O)CC[C@@H](C)C1CCC2C3C[C@H](O)[C@@H]4C[C@H](O)CC[C@]4(C)C3CC[C@@]21C)[C@@H]1CCc2ccccc21 (some centres unmarked) [Example 6, methyl ((Rasagiline-N-formyl)oxy)-hyodeoxycholate] |  | < 50 | solubility ([1]; pH 7.4, aqueous buffer): < 5 µg/mL
C#CCN(C(=O)OCOC(=O)CCCC[C@@H]1SC[C@@H]2NC(=O)N[C@@H]21)[C@@H]1CCc2ccccc21 [Example 7, methyl ((Rasagiline-N-formyl)oxy)-biotin methyl ester] | 31.7 (≈ 67.2 µM) |  | 
C#CCN(C(=O)OCOC(=O)/C=C/c1ccc(O)c(OC)c1)[C@@H]1CCc2ccccc21 [Example 8, methyl ((Rasagiline-N-formyl)oxy)-ferulate] | < 5 | 130.4 to 133.8 | 
C#CCN(C(=O)OCOC(=O)CC[C@@H](C)C1CCC2C3C(CC[C@@]21C)[C@@]1(C)CC[C@@H](O)C[C@H]1C[C@H]3O)[C@@H]1CCc2ccccc21 (some centres unmarked) [Example 9, methyl ((Rasagiline-N-formyl)oxy)-chenodeoxycholate] |  | < 50 | solubility ([1]; pH 7.4, aqueous buffer): < 5 µg/mL
C#CCN(C(=O)OCOC(=O)CC[C@@H](C)C1CCC2C3C(CC[C@@]21C)[C@@]1(C)CC[C@@H](O)C[C@H]1C[C@@H]3O)[C@@H]1CCc2ccccc21 (some centres unmarked) [Example 10, methyl ((Rasagiline-N-formyl)oxy)-ursodesoxycholate] |  | < 50 | solubility ([1]; pH 7.4, aqueous buffer): < 5 µg/mL
C#CCN(C(=O)OCOC(=O)CC[C@@H](C)C1CCC2C3CC[C@@H]4C[C@H](O)CC[C@]4(C)C3C[C@H](O)[C@@]21C)[C@@H]1CCc2ccccc21 (some centres unmarked) [Example 11, methyl ((Rasagiline-N-formyl)oxy)-deoxycholate] |  | < 50 | solubility ([1]; pH 7.4, aqueous buffer): < 5 µg/mL
C#CCN(C(=O)OCOC(=O)CCCCCNC(=O)CCCCCCCCCCCCCCCCCCC)[C@@H]1CCc2ccccc21 [Example 12, methyl ((Rasagiline-N-formyl)oxy)-icosanamidohexanoate] | < 5 | 77.2 to 80.8 | 
C#CCN(C(=O)OCOC(=O)CCCNC(=O)CCCCCCCCCCCCCCCCCCC)[C@@H]1CCc2ccccc21 [Example 13, methyl ((Rasagiline-N-formyl)oxy)-icosanamidobutanoate] | < 5 | 80 to 82 | release of the prodrug and conversion into Rasagiline (in words) [2]: steadier
C#CCN(C(=O)OCOC(=O)CCCNC(=O)CCCCCCCCCCCCCCCCC)[C@@H]1CCc2ccccc21 [Example 14, methyl ((Rasagiline-N-formyl)oxy)-stearamidobutanoate] | < 5 | 76 to 78 | 
C#CCN(C(=O)OCOC(=O)CCCNC(=O)CCCCCCCCCCCCCCC)[C@@H]1CCc2ccccc21 [Example 15, methyl ((Rasagiline-N-formyl)oxy)-palmitamidobutanoate] | < 5 | 73 to 75 | 
C#CCN(C(=O)OCOC(=O)CCCNC(=O)CCCCCCCCCCC)[C@@H]1CCc2ccccc21 [Example 16, methyl ((Rasagiline-N-formyl)oxy)4-dodecanamidobutanoate] | < 5 | 56.1 to 59.4 | 
C#CCN(C(=O)OCOC(=O)CCCNC(=O)CCCCCCCCCCCCC)[C@@H]1CCc2ccccc21 [Example 17, methyl ((Rasagiline-N-formyl)oxy)4-tetradecanamidobutanorate] | < 5 | 66.3 to 71.8 | 
C#CCN(C(=O)OCOC(=O)CCCNC(=O)CCCCCCCCCCCCCCCCCCCCC)[C@@H]1CCc2ccccc21 [Example 20, methyl ((Rasagiline-N-formyl)oxy)4-docosanamidobutanoate] | < 5 | 55.4 to 56.2 | release of the prodrug and conversion into Rasagiline (in words) [2]: steadier
C#CCN(C(=O)OCOC(=O)CCCCNC(=O)CCCCCCCCCCCCCCC)[C@@H]1CCc2ccccc21 [Example 21, methyl ((Rasagiline-N-formyl)oxy)5-palmitamidopentanoate] | < 5 | 58.3 to 58.9 | 
C#CCN(C(=O)OCOC(=O)CCCCNC(=O)CCCCCCCCCCCCCCCCC)[C@@H]1CCc2ccccc21 [Example 22, methyl ((Rasagiline-N-formyl)oxy)5-stearamidopentanoate] | < 5 | 75.3 to 77.1 | 
C#CCN(C(=O)OCOC(=O)CCC(=O)NCCCCCCCCCCCCCCCCCC)[C@@H]1CCc2ccccc21 [Example 23, methyl ((Rasagiline-N-formyl)oxy)4-octadecylamidosuccinate] | < 5 |  | 
C#CCN[C@@H]1CCc2ccccc21 [Rasagiline] |  |  | inhibiting effect compared to Selegiline [3]: 5-10 times
methyl ((Rasagiline-N-formyl)oxy)4-stearamidohexanoate [Example 18] |  |  | solubility ([1]; pH 7.4): <5 µg/mL
